The NIST ThermoML archive (doi:10.1016/j.fluid.2018.10.006)
Numbers after ± are expanded uncertainties.

Settings: Fluid (supercritical or subcritical phases), Coaxial cylinder method

CCCCCC [hexane]
Settings | thermal conductivity [W/m/K]
508.92 K, 3088 kPa | 0.1061 ± 0.0049
508.92 K, 3089 kPa | 0.1087 ± 0.005
508.92 K, 3090 kPa | 0.1096 ± 0.0051
508.92 K, 3091 kPa | 0.11 ± 0.0051
508.92 K, 3092 kPa | 0.1093 ± 0.005
508.92 K, 3093 kPa | 0.1071 ± 0.0049
508.92 K, 3094 kPa | 0.1049 ± 0.0048
508.92 K, 3095 kPa | 0.1028 ± 0.0047
508.92 K, 3096 kPa | 0.101 ± 0.0047
508.92 K, 3097 kPa | 0.09872 ± 0.0046
508.92 K, 3098 kPa | 0.0967 ± 0.0044
508.92 K, 3099 kPa | 0.0947 ± 0.0044
508.92 K, 3100 kPa | 0.09356 ± 0.0043
508.92 K, 3101 kPa | 0.09223 ± 0.0043
508.92 K, 3102 kPa | 0.09134 ± 0.0042
508.92 K, 3103 kPa | 0.09045 ± 0.0042
508.92 K, 3104 kPa | 0.08916 ± 0.0041
508.92 K, 3105 kPa | 0.08837 ± 0.0041
508.92 K, 3106 kPa | 0.08751 ± 0.004
508.92 K, 3107 kPa | 0.08708 ± 0.004
508.92 K, 3108 kPa | 0.08666 ± 0.004
508.92 K, 3109 kPa | 0.08604 ± 0.004
508.92 K, 3110 kPa | 0.08542 ± 0.0039
508.92 K, 3111 kPa | 0.08502 ± 0.0039
508.92 K, 3112 kPa | 0.08462 ± 0.0039
508.92 K, 3113 kPa | 0.08398 ± 0.0039
508.92 K, 3114 kPa | 0.08318 ± 0.0038
508.92 K, 3115 kPa | 0.08318 ± 0.0038
508.92 K, 3120 kPa | 0.08124 ± 0.0038
508.92 K, 3125 kPa | 0.07976 ± 0.0037
508.92 K, 3130 kPa | 0.07868 ± 0.0037
508.92 K, 3135 kPa | 0.07761 ± 0.0037
508.92 K, 3140 kPa | 0.07664 ± 0.0036
508.92 K, 3145 kPa | 0.07595 ± 0.0036
508.92 K, 3150 kPa | 0.07561 ± 0.0035
508.92 K, 3155 kPa | 0.07461 ± 0.0035
508.92 K, 3159 kPa | 0.07461 ± 0.0035
508.92 K, 3160 kPa | 0.07429 ± 0.0035
508.92 K, 3165 kPa | 0.07396 ± 0.0034
508.92 K, 3170 kPa | 0.07364 ± 0.0034
508.92 K, 3175 kPa | 0.07309 ± 0.0034
508.92 K, 3180 kPa | 0.07309 ± 0.0034
508.92 K, 3185 kPa | 0.07278 ± 0.0034
508.92 K, 3190 kPa | 0.07248 ± 0.0034
508.92 K, 3195 kPa | 0.07217 ± 0.0034
508.92 K, 3200 kPa | 0.07227 ± 0.0034
508.92 K, 3205 kPa | 0.07189 ± 0.0034
508.92 K, 3215 kPa | 0.07157 ± 0.0033
508.92 K, 3220 kPa | 0.07128 ± 0.0033
508.92 K, 3225 kPa | 0.07128 ± 0.0033
508.92 K, 3230 kPa | 0.07107 ± 0.0033
508.92 K, 3235 kPa | 0.07101 ± 0.0033
508.92 K, 3240 kPa | 0.07092 ± 0.0033
508.92 K, 3245 kPa | 0.07081 ± 0.0033
508.92 K, 3250 kPa | 0.07098 ± 0.0033
508.92 K, 3255 kPa | 0.07098 ± 0.0033
508.92 K, 3260 kPa | 0.07098 ± 0.0033
508.92 K, 3265 kPa | 0.07069 ± 0.0033
508.92 K, 3270 kPa | 0.07069 ± 0.0033
508.92 K, 3275 kPa | 0.07069 ± 0.0033
508.92 K, 3280 kPa | 0.07069 ± 0.0033
508.92 K, 3285 kPa | 0.07069 ± 0.0033
508.92 K, 3290 kPa | 0.0704 ± 0.0033
508.92 K, 3295 kPa | 0.0704 ± 0.0033
508.92 K, 3300 kPa | 0.0704 ± 0.0033
508.92 K, 3310 kPa | 0.0704 ± 0.0033
508.92 K, 3320 kPa | 0.07069 ± 0.0033
508.92 K, 3330 kPa | 0.07069 ± 0.0033
508.92 K, 3340 kPa | 0.07069 ± 0.0033
508.92 K, 3350 kPa | 0.0707 ± 0.0033
508.92 K, 3355 kPa | 0.07041 ± 0.0033
508.92 K, 3360 kPa | 0.07041 ± 0.0033
508.92 K, 3365 kPa | 0.07041 ± 0.0033
508.92 K, 3370 kPa | 0.07041 ± 0.0033
508.92 K, 3375 kPa | 0.07041 ± 0.0033
508.92 K, 3380 kPa | 0.07041 ± 0.0033
508.92 K, 3385 kPa | 0.07041 ± 0.0033
508.92 K, 3390 kPa | 0.07013 ± 0.0033
508.92 K, 3395 kPa | 0.07013 ± 0.0033
508.92 K, 3500 kPa | 0.07013 ± 0.0033
508.92 K, 3535 kPa | 0.07013 ± 0.0033
508.92 K, 3540 kPa | 0.07013 ± 0.0033
508.92 K, 3545 kPa | 0.06984 ± 0.0033
508.92 K, 3550 kPa | 0.07041 ± 0.0033
508.92 K, 3555 kPa | 0.07041 ± 0.0033
508.92 K, 3560 kPa | 0.07041 ± 0.0033
508.92 K, 3565 kPa | 0.07041 ± 0.0033
508.92 K, 3570 kPa | 0.07041 ± 0.0033
508.92 K, 3605 kPa | 0.06984 ± 0.0033
508.92 K, 3670 kPa | 0.06984 ± 0.0033
508.92 K, 3690 kPa | 0.06984 ± 0.0033
508.92 K, 3700 kPa | 0.0707 ± 0.0033
508.92 K, 3900 kPa | 0.0707 ± 0.0033
508.92 K, 4000 kPa | 0.0707 ± 0.0033
508.92 K, 4300 kPa | 0.07129 ± 0.0033
508.92 K, 4400 kPa | 0.07159 ± 0.0034
508.92 K, 4500 kPa | 0.07188 ± 0.0034
508.92 K, 4600 kPa | 0.07219 ± 0.0034
508.92 K, 4700 kPa | 0.07219 ± 0.0034
508.92 K, 4800 kPa | 0.0725 ± 0.0034
508.92 K, 4900 kPa | 0.0725 ± 0.0034
508.92 K, 5000 kPa | 0.0728 ± 0.0034
508.92 K, 5100 kPa | 0.0728 ± 0.0034
508.92 K, 5200 kPa | 0.07342 ± 0.0034
508.92 K, 5300 kPa | 0.07342 ± 0.0034
508.92 K, 5400 kPa | 0.07342 ± 0.0034
508.92 K, 5500 kPa | 0.07373 ± 0.0034
508.92 K, 5600 kPa | 0.07437 ± 0.0035
508.92 K, 5800 kPa | 0.07437 ± 0.0035
508.92 K, 6000 kPa | 0.07437 ± 0.0035
508.92 K, 6100 kPa | 0.07437 ± 0.0035
508.92 K, 6200 kPa | 0.07469 ± 0.0035
508.92 K, 6400 kPa | 0.07501 ± 0.0035
508.92 K, 6500 kPa | 0.07534 ± 0.0035
508.92 K, 7000 kPa | 0.07634 ± 0.0035
508.92 K, 7500 kPa | 0.07702 ± 0.0036
508.92 K, 8000 kPa | 0.07771 ± 0.0036
508.92 K, 8500 kPa | 0.07771 ± 0.0036
508.92 K, 9000 kPa | 0.07828 ± 0.0036
508.92 K, 9500 kPa | 0.07915 ± 0.0037
508.92 K, 10000 kPa | 0.07951 ± 0.0037
509.85 K, 2686 kPa | 0.04642 ± 0.0023
509.85 K, 2700 kPa | 0.04668 ± 0.0023
509.85 K, 2710 kPa | 0.04655 ± 0.0023
509.85 K, 2720 kPa | 0.04706 ± 0.0023
509.85 K, 2730 kPa | 0.0472 ± 0.0023
509.85 K, 2740 kPa | 0.04733 ± 0.0024
509.85 K, 2750 kPa | 0.04759 ± 0.0024
509.85 K, 2760 kPa | 0.04786 ± 0.0024
509.85 K, 2770 kPa | 0.04813 ± 0.0024
509.85 K, 2780 kPa | 0.04827 ± 0.0024
509.85 K, 2790 kPa | 0.04841 ± 0.0024
509.85 K, 2800 kPa | 0.04854 ± 0.0024
509.85 K, 2805 kPa | 0.04868 ± 0.0024
509.85 K, 2810 kPa | 0.04882 ± 0.0024
509.85 K, 2815 kPa | 0.0491 ± 0.0024
509.85 K, 2820 kPa | 0.04925 ± 0.0024
509.85 K, 2825 kPa | 0.04939 ± 0.0024
509.85 K, 2830 kPa | 0.04953 ± 0.0024
509.85 K, 2835 kPa | 0.04968 ± 0.0024
509.85 K, 2840 kPa | 0.04957 ± 0.0024
509.85 K, 2845 kPa | 0.04972 ± 0.0024
509.85 K, 2850 kPa | 0.04986 ± 0.0024
509.85 K, 2855 kPa | 0.05001 ± 0.0025
509.85 K, 2860 kPa | 0.05016 ± 0.0025
509.85 K, 2865 kPa | 0.05031 ± 0.0025
509.85 K, 2870 kPa | 0.05046 ± 0.0025
509.85 K, 2875 kPa | 0.05061 ± 0.0025
509.85 K, 2880 kPa | 0.05077 ± 0.0025
509.85 K, 2885 kPa | 0.05123 ± 0.0025
509.85 K, 2890 kPa | 0.05123 ± 0.0025
509.85 K, 2895 kPa | 0.05139 ± 0.0025
509.85 K, 2900 kPa | 0.05154 ± 0.0025
509.85 K, 2905 kPa | 0.0517 ± 0.0025
509.85 K, 2910 kPa | 0.05186 ± 0.0025
509.85 K, 2915 kPa | 0.05218 ± 0.0026
509.85 K, 2920 kPa | 0.05243 ± 0.0026
509.85 K, 2925 kPa | 0.05259 ± 0.0026
509.85 K, 2930 kPa | 0.05293 ± 0.0026
509.85 K, 2935 kPa | 0.05309 ± 0.0026
509.85 K, 2940 kPa | 0.05326 ± 0.0026
509.85 K, 2945 kPa | 0.05344 ± 0.0026
509.85 K, 2950 kPa | 0.05378 ± 0.0026
509.85 K, 2955 kPa | 0.05395 ± 0.0026
509.85 K, 2960 kPa | 0.05431 ± 0.0026
